# Measurements reported in PMC6028563, “Probing Substituents in the 1- and 3-Position: Tetrahydropyrazino-Annelated Water-Soluble Xanthine Derivatives as Multi-Target Drugs With Potent Adenosine Receptor Antagonistic Activity” (Frontiers in Chemistry, 2018).
# Experiments:
# [1] = target: T1, rat A1 AR (Rattus norvegicus, UniProt P25099); assay: Radioligand binding assay at rat A1 AR (rat brain cortex) vs. [^3H]CCPA; conditions: rat (r); for Ki: rat brain cortex, n = 3; for inhibition at 1.5 µM: read-out: % inhibition of radioligand binding at indicated concentration, A1 vs. [^3H]CCPA, at 1,500 nM
# T1 construct: A1 ARs of rat brain cortical membrane; from tissue; host or cells: rat brain cortex membranes
# T1 sequence (P25099 1-326): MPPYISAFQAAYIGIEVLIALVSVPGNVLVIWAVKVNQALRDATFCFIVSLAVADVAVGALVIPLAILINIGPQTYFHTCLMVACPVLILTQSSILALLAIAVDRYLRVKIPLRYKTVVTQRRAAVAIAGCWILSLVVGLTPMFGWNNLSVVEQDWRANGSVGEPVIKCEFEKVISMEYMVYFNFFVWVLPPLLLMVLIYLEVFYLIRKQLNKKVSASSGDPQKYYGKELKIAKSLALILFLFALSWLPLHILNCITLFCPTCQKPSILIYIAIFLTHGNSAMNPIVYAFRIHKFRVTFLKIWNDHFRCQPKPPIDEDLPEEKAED
# Method: (§1) Membrane preparations and radioligand binding assays at rat A1 (rat brain cortex) and rat A2A ARs (rat brain striatum) were performed as previously described (Ozola et al., [2003]; Alnouri et al., [2015]). For assays at human A1, A2A, A2B, and A3 ARs, CHO cell membranes expressing one of the human AR subtypes were used as previously reported (Klotz et al., [1998]; Alnouri et al., [2015]; De Filippo et al., [2016]).
# (§2) The synthesized tetrahydropyrazino[2,1-f ]purinediones 13–20 were evaluated in radioligand binding assays for their affinity to A1 ARs of rat brain cortical membrane and to A2A ARs of rat brain striatal membrane preparations. Selected compounds were further investigated for their affinity to human A1 and A2A ARs recombinantly expressed in Chinese hamster ovary (CHO) cells. All compounds were additionally investigated for their affinity to human A2B and A3 ARs recombinantly expressed in CHO cells to determine their AR subtype selectivity. […] It is well known that all xanthine derivatives lacking a ribose moiety, including tricyclic compounds, can only block ARs, but never act as AR agonists; therefore, additional functional studies were not required. […] Potent MAO-B inhibitors were additionally investigated for inhibition of human MAO-A to assess their selectivity. Results are presented in Tables 1–6, and data of standard ligands are included for comparison.
# [2] = target: T2, human A2B AR (Homo sapiens, UniProt P29275); assay: Radioligand binding assay at human A2B AR vs. [^3H]PSB-603; conditions: for Ki: CHO cell membranes, n = 2 (n = 3 where marked a), read-out: Ki ± SEM, A2B vs. [^3H]PSB-603; for inhibition at 1 µM: at 1,000 nM, read-out: % inhibition of radioligand binding at indicated concentration, A2B vs. [^3H]PSB-603
# T2 construct: expressed in transfected cells; host or cells: CHO cells
# T2 sequence (P29275 1-332): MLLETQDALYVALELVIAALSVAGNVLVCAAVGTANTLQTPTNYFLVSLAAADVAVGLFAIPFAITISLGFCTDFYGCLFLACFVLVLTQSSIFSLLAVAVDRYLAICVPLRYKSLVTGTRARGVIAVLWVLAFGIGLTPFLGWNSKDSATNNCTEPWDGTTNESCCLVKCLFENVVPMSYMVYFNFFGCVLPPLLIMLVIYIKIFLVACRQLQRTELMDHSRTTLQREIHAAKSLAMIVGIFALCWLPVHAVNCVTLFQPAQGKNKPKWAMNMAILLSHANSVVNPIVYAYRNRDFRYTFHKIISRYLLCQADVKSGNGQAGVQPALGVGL
# Method: as §1, §2
# [3] = target: T3, rat A2A AR (Rattus norvegicus, UniProt P30543); assay: Radioligand binding assay at rat A2A AR (rat brain striatum) vs. [^3H]MSX-2; conditions: rat (r); for % inhibition of radioligand binding at indicated concentration, A2A vs. [^3H]MSX-2: at 1,000 nM; for Ki: rat brain striatum, n = 3, read-out: Ki ± SEM, A2A vs. [^3H]MSX-2
# T3 construct: A2A ARs of rat brain striatal membrane preparations; from tissue; host or cells: rat brain striatum membranes
# Method: as §1, §2
# [4] = target: T4, human A3 AR (Homo sapiens, UniProt P0DMS8); assay: Radioligand binding assay at human A3 AR vs. [^3H]PSB-11; conditions: for Ki: CHO cell membranes, n = 2 (n = 3 where marked a), read-out: Ki ± SEM, A3 vs. [^3H]PSB-11; for inhibition at 10 µM: at 10,000 nM, read-out: % inhibition of radioligand binding at indicated concentration, A3 vs. [^3H]PSB-11
# T4 construct: expressed in transfected cells; host or cells: CHO cells
# T4 sequence (P0DMS8 1-318): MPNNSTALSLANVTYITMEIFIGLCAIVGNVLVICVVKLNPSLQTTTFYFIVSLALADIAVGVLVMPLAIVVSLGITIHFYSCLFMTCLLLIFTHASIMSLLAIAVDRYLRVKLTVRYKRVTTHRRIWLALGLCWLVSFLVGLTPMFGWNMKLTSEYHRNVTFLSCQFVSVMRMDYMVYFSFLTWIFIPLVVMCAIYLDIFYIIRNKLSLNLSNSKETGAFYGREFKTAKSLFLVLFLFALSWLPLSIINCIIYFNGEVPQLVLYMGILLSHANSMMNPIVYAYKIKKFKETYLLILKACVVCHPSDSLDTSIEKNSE
# Method: as §1, §2
# [5] = target: T5, recombinant human MAO-B (Homo sapiens, UniProt P27338); assay: Monoamine oxidase assay (Amplex Red), MAO-B; type: biochemical; conditions: for inhibition at 10 µM: at 10,000 nM (10 μM), read-out: % inhibition at indicated concentration, Human MAO-B; for IC50: read-out: IC50 ± SEM, Human MAO-B
# T5 construct: purchased Sigma-Aldrich M7441; host or cells: baculovirus-infected insect cells
# T5 sequence (P27338 1-520): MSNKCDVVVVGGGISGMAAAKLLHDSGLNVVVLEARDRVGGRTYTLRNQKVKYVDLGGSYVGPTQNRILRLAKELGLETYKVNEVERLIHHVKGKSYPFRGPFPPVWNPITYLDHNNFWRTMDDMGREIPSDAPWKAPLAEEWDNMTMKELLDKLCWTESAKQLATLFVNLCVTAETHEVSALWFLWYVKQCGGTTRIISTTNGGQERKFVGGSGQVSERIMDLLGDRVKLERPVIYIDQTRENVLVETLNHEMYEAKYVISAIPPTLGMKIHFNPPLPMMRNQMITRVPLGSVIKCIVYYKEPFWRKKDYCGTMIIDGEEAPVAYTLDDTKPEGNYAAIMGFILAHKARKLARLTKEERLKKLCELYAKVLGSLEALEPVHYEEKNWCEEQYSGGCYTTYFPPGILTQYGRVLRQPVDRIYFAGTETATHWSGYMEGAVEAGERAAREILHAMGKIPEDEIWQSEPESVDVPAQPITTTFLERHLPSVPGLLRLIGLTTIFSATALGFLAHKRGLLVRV
# Method: (§3) The determination of MAO-A and MAO-B inhibition was performed using commercially available recombinant human MAO-A and MAO-B enzymes expressed in baculovirus-infected insects sells (Sigma-Aldrich, M7316 and M7441) applying the commercially available Amplex® Red monoamine oxidase assay kit (Invitrogen A12214). The assays were performed as previously described. The determination of rat MAO-B inhibition was performed using mitochondrial-enriched fractions from male Sprague Dawley rat livers. […]
# [6] = target: T6, human A1 AR (Homo sapiens, UniProt P30542); assay: Radioligand binding assay at human A1 AR vs. [^3H]CCPA; conditions: human (h); CHO cell membranes; n = 3
# T6 construct: expressed in transfected cells; host or cells: CHO cells
# T6 sequence (P30542 1-326): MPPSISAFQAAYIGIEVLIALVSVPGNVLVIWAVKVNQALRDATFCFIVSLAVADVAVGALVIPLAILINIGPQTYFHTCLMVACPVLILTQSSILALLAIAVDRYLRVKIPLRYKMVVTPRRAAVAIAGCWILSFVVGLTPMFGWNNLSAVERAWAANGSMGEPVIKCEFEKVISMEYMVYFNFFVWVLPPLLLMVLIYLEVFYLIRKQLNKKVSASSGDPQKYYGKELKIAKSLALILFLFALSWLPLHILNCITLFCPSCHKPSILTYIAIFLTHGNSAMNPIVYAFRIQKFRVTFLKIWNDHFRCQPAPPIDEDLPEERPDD
# Method: as §1, §2
# [7] = target: T7, recombinant human MAO-A (Homo sapiens, UniProt P21397); assay: Monoamine oxidase assay (Amplex Red), MAO-A; type: biochemical; conditions: for inhibition at 10 µM: at 10,000 nM, read-out: % inhibition at indicated concentration, Human MAO-A; for IC50: n = 3, read-out: IC50 ± SEM, Human MAO-A
# T7 construct: purchased Sigma-Aldrich M7316; host or cells: baculovirus-infected insect cells
# T7 sequence (P21397 1-527): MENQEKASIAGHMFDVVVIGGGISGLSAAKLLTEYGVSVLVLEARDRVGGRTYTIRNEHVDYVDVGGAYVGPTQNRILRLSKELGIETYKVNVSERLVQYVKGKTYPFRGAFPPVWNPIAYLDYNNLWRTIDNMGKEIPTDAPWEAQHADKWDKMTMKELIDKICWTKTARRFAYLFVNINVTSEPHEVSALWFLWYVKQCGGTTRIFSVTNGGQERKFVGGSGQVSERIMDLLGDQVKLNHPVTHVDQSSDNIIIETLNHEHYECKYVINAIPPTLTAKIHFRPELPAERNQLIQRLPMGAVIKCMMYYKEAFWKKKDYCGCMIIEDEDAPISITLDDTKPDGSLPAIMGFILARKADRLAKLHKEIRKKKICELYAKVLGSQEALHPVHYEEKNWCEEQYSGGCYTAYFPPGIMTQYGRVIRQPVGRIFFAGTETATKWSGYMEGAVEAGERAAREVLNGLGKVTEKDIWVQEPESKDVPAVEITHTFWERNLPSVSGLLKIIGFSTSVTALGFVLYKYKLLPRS
# Method: as §3
# T3 sequence (P30543 whole entry): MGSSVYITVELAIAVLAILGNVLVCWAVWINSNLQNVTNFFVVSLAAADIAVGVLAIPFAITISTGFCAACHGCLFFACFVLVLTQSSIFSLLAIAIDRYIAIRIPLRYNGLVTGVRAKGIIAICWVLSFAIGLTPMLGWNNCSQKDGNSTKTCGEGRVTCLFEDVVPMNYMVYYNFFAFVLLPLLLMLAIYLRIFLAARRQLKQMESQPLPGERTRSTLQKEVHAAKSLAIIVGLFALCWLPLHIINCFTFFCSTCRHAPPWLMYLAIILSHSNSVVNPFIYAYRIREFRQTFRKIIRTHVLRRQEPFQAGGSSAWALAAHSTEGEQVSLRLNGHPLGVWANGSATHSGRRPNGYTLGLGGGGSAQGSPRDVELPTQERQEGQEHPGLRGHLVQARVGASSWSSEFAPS
SMILES,Ki [1] [nM],Ki [2] [nM],inhibition at 1 µM [2] [%],"% inhibition of radioligand binding at indicated concentration, A2A vs. [^3H]MSX-2 [3] [%]",Ki [3] [nM],Ki [4] [nM],inhibition at 10 µM [4] [%],inhibition at 10 µM [5] [%],IC50 ([5]; n = 3) [nM],Ki [6] [nM],inhibition at 1.5 µM [1] [%],inhibition at 10 µM [7] [%],IC50 [7] [nM],"IC50 ± SEM, Human MAO-B ([5]; n = 3)"
"CCn1c(=O)c2c(nc3n2CCN(Cc2ccc(F)cc2)C3)n(C)c1=O [Compound 14h, 3-ethyl-8-(4-fluorobenzyl)-1-methyl-6,7,8,9-tetrahydropyrazino[2,1-f]purine-2,4(1H,3H)-dione]",164 ± 28,> 1000,9,7,> 1000,> 10000,37,24,> 10000,5120,,,,
"Cn1c(=O)[nH]c(=O)c2c1nc1n2CCN(CCc2ccc(Cl)c(Cl)c2)C1 [Compound 13g, 8-(3,4-dichlorophenethyl)-1-methyl-6,7,8,9-tetrahydropyrazino[2,1-f]purine-2,4(1H,3H)-dione]",> 1500,> 1000,1,10,> 1000,> 10000,41,,864 ± 64,,3,12,> 10000,submicromolar range
"CCn1c(=O)c2c(nc3n2CCN(Cc2cccc(F)c2)C3)n(CC)c1=O [Compound 15b, 1,3-diethyl-8-(3-fluorobenzyl)-6,7,8,9-tetrahydropyrazino[2,1-f]purine-2,4(1H,3H)-dione]",47.2 ± 19.9,> 1000,9,,1580,7020,,49,≥ 10000,207 ± 11,,,,
"CCn1c(=O)c2c(nc3n2CCN(Cc2c(Cl)cccc2Cl)C3)n(C)c1=O [Compound 14k, 8-(2,6-dichlorobenzyl)-3-ethyl-1-methyl-6,7,8,9-tetrahydropyrazino[2,1-f]purine-2,4(1H,3H)-dione]",142 ± 32,> 1000,8,,1100,> 10000,17,43,> 10000,197 ± 5,,,,
"Cn1c(=O)[nH]c(=O)c2c1nc1n2CCN(CCc2ccc(Cl)cc2Cl)C1 [Compound 13f, 8-(2,4-dichlorophenethyl)-1-methyl-6,7,8,9-tetrahydropyrazino[2,1-f]purine-2,4(1H,3H)-dione]",> 1500,> 1000,1,19,> 1000,17200,,,2880,,5,13,> 10000,
"CCn1c(=O)c2c(nc3n2CCN(Cc2ccc(F)c(C(F)(F)F)c2)C3)n(CC)c1=O [Compound 15i, 1,3-diethyl-8-(4-fluoro-3-(trifluoromethyl)benzyl)-6,7,8,9-tetrahydropyrazino[2,1-f]purine-2,4(1H,3H)-dione]",> 1500,> 1000,33,30,> 1000,> 10000,36,,3070,,19,8,> 10000,
"Cn1c(=O)[nH]c(=O)c2c1nc1n2CCN(Cc2ccccc2Br)C1 [Compound 13a, 8-(2-bromobenzyl)-1-methyl-6,7,8,9-tetrahydropyrazino[2,1-f]purine-2,4(1H,3H)-dione]",> 1500,> 1000,1,-23,> 1000,14700,,,4530,,17,13,> 10000,
